Four compounds from patent US20210017607A1, “Methods of Predicting Responsiveness to Cancer Therapies” (The University of Chicago, priority 2019, published 2021) can be followed below.

Molecules are shown by their SMILES. ≈ marks a conversion by molar mass, not a printed value. Read-outs that look alike come from different tables or passages of the source.

In one test the test system is ID8 ovarian cancer cells. Put plainly: ID8 cells in vitro STING pathway activation (western, ImageStream, ELISA). As to conditions: for STING pathway activation within ID8-PTEN^−/− cells / IFNB1 levels in combination with STING agonist DMXAA, ID8-PTEN^−/− cells: 36 hours; for IFNB1 levels in combination with STING agonist DMXAA, ID8-PTEN^−/− cells: ELISA. It is filed as cell-based, mouse. The procedure:
FIGS. 56A and 56B. […] (56A) PTEN-proficient (PTEN^+/+) and deficient (PTEN^−/−) ID8 ovarian cancer cells were treated with DMXAA (50 μg/mL) for 0, 1, 6, 12, 24 and 36 hours. Nuclear extracts were probed for localization of p-IRF3 and p-NF-kB, markers of STING pathway activation. n=1 independent experiment. (56B) Wild-type (PTEN^+/+) and PTEN-deficient (PTEN^−/−) Myc-CAP (prostate) and ID8 (ovarian) cancer cells were treated with DMXAA (50 μg/mL) for 36 hours. The supernatants were analyzed by ELISA for IFN-β1 release. n=3 independent experiments.
FIGS. 57A-57C. […] PTEN-proficient (PTEN+/+) and deficient (PTEN−/−) ID8 ovarian cancer cells were treated with DMXAA (50 μg/mL) for 0, 12, 24 and 36 hours. (57A) The nuclear localization of p-IRF3 and p-NFkB was analyzed by ImageStream. The overlap of the two generates a white color that scores for nuclear localization of pIRF3. (57B) Graphical representation of nuclear localization of pIRF3 and p-NF-kB at 12, 24, and 36 hours after DMXAA treatment, relative to untreated groups in ID8 wild-type and PTEN^−/− cells. n=3 independent experiments.
FIGS. 58A and 58B. […] (58A) PTEN-proficient (PTEN^+/+) and deficient (PTEN^−/−) ID8 ovarian cancer cells were treated with IC90 concentrations of pan-PI3K inhibitors, either copanlisib (100 nM) or BKM120 (1000 nM) for 36 hours in presence or absence of STING agonists, DMXAA (50 μg/mL, 1 hour at the end of experiment). The activation status of both PI3K and STING signaling pathways were probed with the indicated antibodies by western blotting. n=2 independent experiments. (58B) Cells were treated as described in (58A), with the exception that concomitant DMXAA treatment was carried out for 36 hours. The supernatants were analyzed by ELISA for IFN-β1 release. n=3 independent experiments.
Cytokine Array/IFNβ1 ELISA. Supernatants from untreated or drug treated cancer cell lines and bone marrow derived macrophages were collected at 36 hours and spun down at 2000×g for 5 min at 4° C. to remove cellular debris. These clear supernatants were processed for detection of Type I Interferon by ELISA (LEGEND MAX™ Mouse IFNβ1 ELISA, Biolegend®) or for determination of a panel of cytokines/chemokines using LEGENDplex™ array (Mouse Anti-Virus Response Panel, Biolegend®) as per instructions in protocol provided.
Western blotting. RIPA buffer (Boston BioProducts) supplemented with protease (Roche®) and HALT phosphatase inhibitor cocktail (Thermo Scientific®) was used for preparation of total cell lysates. For western blotting, the following antibodies were used from Cell Signaling Technology®: Polyclonal rabbit anti-mouse-, phospho-AKT, total AKT, c-GAS, STING, phospho-IRF3, total IRF3, phospho-TBK1, total TBK1, PTEN, phospho NF-kB, total NF-kB, p53, lamin B1, β-actin, alpha-tubulin, and GAPDH. Images of scanned blots were processed using ADOBE Photoshop.
Image Stream Analysis. PTEN-proficient and deficient ID8 ovarian cancer cells were treated with DMXAA (50 ug/mL) for 0, 12, 24, and 36 hours. After termination at endpoints, cells were stained with primary antibodies—anti-mouse p-IRF3 (Cell Signaling Technology®), p-NFkB (Cell Signaling Technology®), followed by incubation with flurochrome tagged secondary antibodies and DAPI. Images of nuclear localization of p-IRF3 and p-NF-kB within single cells were acquired using ImageStreamg®^x Mark II (Amnis®) and data obtained was analyzed using IDEAS® software.
Background: An ELISA detects its analyte on a solid surface through an enzyme-linked reagent.

Test [1] can be described thus: IC90 concentrations stated for in vitro/ex vivo drug treatments. Conditions: for IC90: read-out: IC90 concentration.
The mark [2] stands for this setting: FIG. 50, Myc-CAP-PTEN^−/− tumor suspensions.
[3] abbreviates: FIG. 58, ID8 ovarian cancer cells.
[4] abbreviates: FIG. 38, Myc-CAP-PTEN+/+ and PTEN−/− tumor suspensions.

As for `COc1c(OCCCN2CCOCC2)ccc2c1N=C(NC(=O)c1cnc(N)nc1)N1CCN=C21` [copanlisib], in the test on ID8 ovarian cancer cells, the “STING pathway activation within ID8-PTEN^−/− cells” value is “partially restore STING pathway activation”. Also, in the test on ID8 ovarian cancer cells, the “IFNB1 levels in combination with STING agonist DMXAA, ID8-PTEN^−/− cells” value was “unable to rescue IFNB1 levels”. The values for the IC90 in test [1] (setting [2]), in test [1] (setting [3]) and in test [1] (Myc-CAP-PTEN^−/− cells in vitro (FIG. 35)) were 500 nM, 100 nM and 100 nM, respectively.
In the case of `Nc1cc(C(F)(F)F)c(-c2cc(N3CCOCC3)nc(N3CCOCC3)n2)cn1` [buparlisib], in the test on ID8 ovarian cancer cells, the “STING pathway activation within ID8-PTEN^−/− cells” value was “partially restore STING pathway activation” and the “IFNB1 levels in combination with STING agonist DMXAA, ID8-PTEN^−/− cells” value was “unable to rescue IFNB1 levels”. The IC90 in test [1] (setting [4]) worked out at 1000 nM. Also, the IC90 in test [1] (setting [3]) worked out at 1000 nM.
`CNCc1ccc(-c2[nH]c3cc(F)cc4c3c2CCNC4=O)cc1` [rucaparib]: in test [1] (setting [4]), the IC90 was 500 nM.
`Cc1ccc2c(=O)c3cccc(CC(=O)O)c3oc2c1C` [DMXAA, 5,6-Dimethylxanthenone-4-acetic Acid]: the “STING pathway activation after PTEN knockdown” value in the test on ID8 ovarian cancer cells (DMXAA 50 μg/mL) is listed as “abrogates STING pathway activation”. Moreover, the “IRF3 translocation to the nucleus after PTEN knockdown” value in the test on ID8 ovarian cancer cells (DMXAA 50 μg/mL, 0-36 hours) was “abolishes IRF3 translocation to the nucleus”. Further, the IC90 concentration in test [1] (setting [4]) and in test [1] (setting [2]) was 50 µg/mL (≈ 177 µM) each time.
